Measured values reported in ChEMBL document CHEMBL5046253, “Synthesis and bioevaluation of diaryl urea derivatives as potential antitumor agents for the treatment of human colorectal cancer” (Eur J Med Chem, 2022).
Calls of active or inactive are those of the source. The calls are words filed in the database; no cut-off is given here.

Tests used:
HCT-116 [1] = experiment: Inhibition of AKT phosphorylation at S473 residue in human HCT-116 cells at 10 uM after 24 hrs by Western blot analysis; assay type: cell-based
[2] = Metabolic stability in Sprague-Dawley rat liver microsome; assay type: ADME; details: microsomes
[3] = AUC (0 to 72 hrs) in Sprague-Dawley rat at 20 mg/kg, iv by LC-MS/MS analysis; assay type: ADME, organism-based; set-up: time < 72 hr, route intravenous, dose 20 mg/kg; details: in vivo
[4] = AUC (0 to infinity) in Sprague-Dawley rat at 20 mg/kg, iv by LC-MS/MS analysis; assay type: ADME, organism-based; set-up: route intravenous, time infinity, dose 20 mg/kg; details: in vivo
[5] = MRT in Sprague-Dawley rat at 20 mg/kg, iv by LC-MS/MS analysis; assay type: ADME, organism-based; details: in vivo
[6] = Half life in Sprague-Dawley rat at 20 mg/kg, iv by LC-MS/MS analysis; assay type: ADME, organism-based; details: in vivo
[7] = Tmax in Sprague-Dawley rat at 20 mg/kg, iv by LC-MS/MS analysis; assay type: ADME, organism-based; details: in vivo
[8] = Volume of distribution at steady state in Sprague-Dawley rat at 20 mg/kg, iv by LC-MS/MS analysis; assay type: ADME, organism-based; details: in vivo
Cytochrome P450 1A2 = Cytochrome P450 1A2 (Homo sapiens, UniProt P05177); experiment: Inhibition of CYP1A2 (unknown origin); assay type: ADME
Cytochrome P450 2C9 = Cytochrome P450 2C9 (Homo sapiens, UniProt P11712); experiment: Inhibition of CYP2C9 (unknown origin); assay type: ADME
Cytochrome P450 2C19 = Cytochrome P450 2C19 (Homo sapiens, UniProt P33261); experiment: Inhibition of CYP2C19 (unknown origin); assay type: ADME
Cytochrome P450 2D6 = Cytochrome P450 2D6 (Homo sapiens, UniProt P10635); experiment: Inhibition of CYP2D6 (unknown origin); assay type: ADME
HCT-116 [9] = experiment: Antitumor activity against human HCT-116 cells xenografted in BALB/c nude mouse assessed as tumor size at 20 mg/kg, iv administered for 19 days (reference value: 1264.1+/-95.7 mm3); assay type: functional; details: time 19 day
HCT-116 [10] = experiment: Antitumor activity against human HCT-116 cells xenografted in BALB/c nude mouse assessed as tumor growth inhibition at 20 mg/kg, iv administered for 19 days; assay type: functional; details: HCT-116, iv, 456 h, time 19 day, read-out: TGI
Spleen = experiment: Toxicity in BALB/c mouse assessed as effect on spleen by H and E staining based histological analysis; assay type: tissue-based; details: in vivo
Heart = experiment: Toxicity in BALB/c mouse assessed as effect on heart by H and E staining based histological analysis; assay type: tissue-based; details: in vivo
Lung = experiment: Toxicity in BALB/c mouse assessed as effect on lungs by H and E staining based histological analysis; assay type: tissue-based; details: in vivo
Kidney = experiment: Toxicity in BALB/c mouse assessed as effect on kidney by H and E staining based histological analysis; assay type: tissue-based; details: in vivo
Liver = experiment: Toxicity in BALB/c mouse assessed as effect on liver by H and E staining based histological analysis; assay type: tissue-based; details: in vivo
Mus musculus = experiment: Hyperglycemic activity in ICR mouse model assessed as effect on blood glucose level at 20 mg/kg, iv by glucometer; assay type: toxicity, organism-based; details: in vivo
[11] = biological target: Phosphatidylinositol 4,5-bisphosphate 3-kinase catalytic subunit alpha isoform (Homo sapiens, UniProt P42336); experiment: Inhibition of PI3Kalpha (unknown origin) using PIP2 as substrate in presence of ATP incubated for 60 mins by ADP-glo based luminescence assay
[12] = biological target: Serine/threonine-protein kinase mTOR (Homo sapiens, UniProt P42345); experiment: Inhibition of mTOR (unknown origin) using U-Light-4E-BP1 peptide as a substrate in presence of ATP incubated for 45 mins by Lance ultra assay
[13] = biological target: Phosphatidylinositol 4,5-bisphosphate 3-kinase catalytic subunit beta isoform (Homo sapiens, UniProt P42338); experiment: Inhibition of PI3Kbeta (unknown origin) using PIP2 as substrate in presence of ATP incubated for 60 mins by ADP-glo based luminescence assay
[14] = biological target: Phosphatidylinositol 4,5-bisphosphate 3-kinase catalytic subunit gamma isoform (Homo sapiens, UniProt P48736); experiment: Inhibition of PI3Kgamma (unknown origin) using PIP2 as substrate in presence of ATP incubated for 60 mins by ADP-glo based luminescence assay
[15] = biological target: T1, Phosphatidylinositol 4,5-bisphosphate 3-kinase catalytic subunit delta isoform (Homo sapiens, UniProt O00329); experiment: Inhibition of PI3Kdelta (unknown origin) using PIP2 as substrate in presence of ATP incubated for 60 mins by ADP-glo based luminescence assay
T1 sequence (O00329 whole entry): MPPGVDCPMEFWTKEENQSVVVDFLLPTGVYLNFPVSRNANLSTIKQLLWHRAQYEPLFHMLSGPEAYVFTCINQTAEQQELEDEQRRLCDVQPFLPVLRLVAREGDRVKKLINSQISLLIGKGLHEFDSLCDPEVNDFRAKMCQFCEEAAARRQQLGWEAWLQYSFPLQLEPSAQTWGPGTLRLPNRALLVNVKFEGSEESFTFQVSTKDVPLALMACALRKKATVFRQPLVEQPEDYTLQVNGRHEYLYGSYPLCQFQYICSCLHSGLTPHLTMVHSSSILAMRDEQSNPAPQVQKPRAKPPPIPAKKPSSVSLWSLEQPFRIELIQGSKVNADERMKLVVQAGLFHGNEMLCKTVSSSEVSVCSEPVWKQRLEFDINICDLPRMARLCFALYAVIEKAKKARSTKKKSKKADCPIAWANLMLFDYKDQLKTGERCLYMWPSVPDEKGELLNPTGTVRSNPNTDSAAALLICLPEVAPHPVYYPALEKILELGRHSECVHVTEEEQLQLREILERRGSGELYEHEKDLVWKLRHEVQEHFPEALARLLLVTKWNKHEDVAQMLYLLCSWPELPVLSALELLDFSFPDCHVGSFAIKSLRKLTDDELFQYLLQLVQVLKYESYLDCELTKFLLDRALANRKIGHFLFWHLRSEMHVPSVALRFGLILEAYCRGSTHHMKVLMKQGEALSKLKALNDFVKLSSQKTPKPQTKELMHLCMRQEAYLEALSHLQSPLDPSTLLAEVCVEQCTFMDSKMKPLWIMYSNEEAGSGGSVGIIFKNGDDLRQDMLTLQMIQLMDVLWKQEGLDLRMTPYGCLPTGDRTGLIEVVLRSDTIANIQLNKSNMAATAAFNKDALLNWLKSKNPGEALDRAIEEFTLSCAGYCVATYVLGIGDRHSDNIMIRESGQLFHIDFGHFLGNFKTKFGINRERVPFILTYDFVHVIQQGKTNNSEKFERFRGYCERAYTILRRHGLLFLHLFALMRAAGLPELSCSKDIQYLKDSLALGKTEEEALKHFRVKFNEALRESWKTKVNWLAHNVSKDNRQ

MDA-MB-231 = experiment: Antiproliferative activity against human MDA-MB-231 cells assessed as reduction in cell viability incubated for 48 hrs by MTT assay; assay type: functional, cell-based; details: MDA-MB-231, 48 h
HeLa = experiment: Antiproliferative activity against human HeLa cells assessed as reduction in cell viability incubated for 48 hrs by MTT assay; assay type: functional, cell-based
CNE-2 = experiment: Antiproliferative activity against human CNE-2 cells assessed as reduction in cell viability incubated for 48 hrs by MTT assay; assay type: functional, cell-based; details: CNE-2, 48 h
HCT-116 [16] = experiment: Antiproliferative activity against human HCT-116 cells assessed as reduction in cell viability incubated for 48 hrs by MTT assay; assay type: functional, cell-based; details: HCT-116, 48 h
HepG2 = experiment: Antiproliferative activity against human HepG2 cells assessed as reduction in cell viability incubated for 48 hrs by MTT assay; assay type: functional, cell-based; details: HepG2, 48 h
A-431 = experiment: Antiproliferative activity against human A431 cells harboring wild type EGFR mutant assessed as reduction in cell viability incubated for 72 hrs by celltiter-glo assay; assay type: functional, cell-based; details: A-431, 72 h
NCI-H1975 = experiment: Antiproliferative activity against human NCI-H1975 cells harboring EGFR L858R/T790M double mutant assessed as reduction in cell viability incubated for 72 hrs by celltiter-glo assay; assay type: functional, cell-based; details: NCI-H1975, 72 h
BaF3 = experiment: Antiproliferative activity against mouse BaF3 cells harboring EGFR L858R/T790M/C797S mutant assessed as reduction in cell viability incubated for 72 hrs by celltiter-glo assay; assay type: toxicity, cell-based; details: BaF3, 72 h

Sequence of Phosphatidylinositol 4,5-bisphosphate 3-kinase catalytic subunit alpha isoform (P42336 whole entry, canonical isoform): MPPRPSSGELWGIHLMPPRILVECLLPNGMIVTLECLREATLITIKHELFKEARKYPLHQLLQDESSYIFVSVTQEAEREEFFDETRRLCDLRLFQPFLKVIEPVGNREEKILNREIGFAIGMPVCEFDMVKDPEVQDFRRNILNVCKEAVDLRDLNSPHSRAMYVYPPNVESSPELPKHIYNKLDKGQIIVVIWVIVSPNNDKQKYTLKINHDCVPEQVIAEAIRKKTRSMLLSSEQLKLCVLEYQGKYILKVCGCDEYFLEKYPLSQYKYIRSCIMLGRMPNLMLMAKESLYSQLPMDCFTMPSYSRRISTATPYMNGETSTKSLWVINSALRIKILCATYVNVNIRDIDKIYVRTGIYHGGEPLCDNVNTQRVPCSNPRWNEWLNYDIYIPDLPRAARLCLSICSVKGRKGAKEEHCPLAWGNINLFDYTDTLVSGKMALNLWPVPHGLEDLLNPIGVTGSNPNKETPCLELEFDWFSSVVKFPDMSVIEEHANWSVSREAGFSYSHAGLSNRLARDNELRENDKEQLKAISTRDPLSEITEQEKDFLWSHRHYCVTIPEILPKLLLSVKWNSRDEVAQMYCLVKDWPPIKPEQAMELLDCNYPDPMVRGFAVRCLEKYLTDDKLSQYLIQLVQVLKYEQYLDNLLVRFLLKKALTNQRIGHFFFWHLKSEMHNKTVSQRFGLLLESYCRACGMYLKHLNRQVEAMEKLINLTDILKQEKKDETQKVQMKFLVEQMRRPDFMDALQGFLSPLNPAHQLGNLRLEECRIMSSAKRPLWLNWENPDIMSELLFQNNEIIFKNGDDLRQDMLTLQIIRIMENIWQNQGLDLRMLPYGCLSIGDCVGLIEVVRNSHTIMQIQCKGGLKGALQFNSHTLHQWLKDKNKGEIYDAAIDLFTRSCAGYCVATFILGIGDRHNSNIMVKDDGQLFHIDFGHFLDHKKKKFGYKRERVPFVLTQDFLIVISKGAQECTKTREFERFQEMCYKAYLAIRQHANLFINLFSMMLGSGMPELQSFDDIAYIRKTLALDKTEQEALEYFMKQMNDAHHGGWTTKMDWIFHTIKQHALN
Sequence of Phosphatidylinositol 4,5-bisphosphate 3-kinase catalytic subunit gamma isoform (P48736 whole entry, canonical isoform): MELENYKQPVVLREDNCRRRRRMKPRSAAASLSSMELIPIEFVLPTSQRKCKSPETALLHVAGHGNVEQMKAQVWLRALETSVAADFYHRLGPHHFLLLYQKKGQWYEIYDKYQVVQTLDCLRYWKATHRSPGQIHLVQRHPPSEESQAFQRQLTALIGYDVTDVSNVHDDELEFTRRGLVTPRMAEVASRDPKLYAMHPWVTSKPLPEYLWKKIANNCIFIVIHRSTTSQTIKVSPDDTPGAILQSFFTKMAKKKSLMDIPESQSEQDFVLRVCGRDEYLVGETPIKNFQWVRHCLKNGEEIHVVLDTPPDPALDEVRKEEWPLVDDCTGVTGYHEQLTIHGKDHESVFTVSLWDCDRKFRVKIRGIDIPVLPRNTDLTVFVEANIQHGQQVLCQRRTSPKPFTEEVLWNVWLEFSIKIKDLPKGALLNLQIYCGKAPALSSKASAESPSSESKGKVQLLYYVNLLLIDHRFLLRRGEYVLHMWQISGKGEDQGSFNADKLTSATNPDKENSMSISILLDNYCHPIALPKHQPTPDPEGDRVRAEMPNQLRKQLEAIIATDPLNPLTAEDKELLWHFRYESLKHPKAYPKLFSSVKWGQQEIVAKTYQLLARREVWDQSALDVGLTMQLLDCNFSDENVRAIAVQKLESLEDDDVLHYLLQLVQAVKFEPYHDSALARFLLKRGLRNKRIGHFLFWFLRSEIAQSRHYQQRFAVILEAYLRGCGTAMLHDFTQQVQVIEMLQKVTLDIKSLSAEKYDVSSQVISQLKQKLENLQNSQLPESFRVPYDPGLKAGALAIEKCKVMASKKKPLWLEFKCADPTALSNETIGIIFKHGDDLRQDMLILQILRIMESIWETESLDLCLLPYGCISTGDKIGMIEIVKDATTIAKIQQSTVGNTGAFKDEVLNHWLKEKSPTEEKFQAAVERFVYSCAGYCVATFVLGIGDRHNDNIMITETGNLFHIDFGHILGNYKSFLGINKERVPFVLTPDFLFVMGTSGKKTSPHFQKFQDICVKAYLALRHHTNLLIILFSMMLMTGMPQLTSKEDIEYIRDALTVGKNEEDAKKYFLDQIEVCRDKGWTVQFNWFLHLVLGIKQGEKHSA
Sequence of Phosphatidylinositol 4,5-bisphosphate 3-kinase catalytic subunit beta isoform (P42338 whole entry, canonical isoform): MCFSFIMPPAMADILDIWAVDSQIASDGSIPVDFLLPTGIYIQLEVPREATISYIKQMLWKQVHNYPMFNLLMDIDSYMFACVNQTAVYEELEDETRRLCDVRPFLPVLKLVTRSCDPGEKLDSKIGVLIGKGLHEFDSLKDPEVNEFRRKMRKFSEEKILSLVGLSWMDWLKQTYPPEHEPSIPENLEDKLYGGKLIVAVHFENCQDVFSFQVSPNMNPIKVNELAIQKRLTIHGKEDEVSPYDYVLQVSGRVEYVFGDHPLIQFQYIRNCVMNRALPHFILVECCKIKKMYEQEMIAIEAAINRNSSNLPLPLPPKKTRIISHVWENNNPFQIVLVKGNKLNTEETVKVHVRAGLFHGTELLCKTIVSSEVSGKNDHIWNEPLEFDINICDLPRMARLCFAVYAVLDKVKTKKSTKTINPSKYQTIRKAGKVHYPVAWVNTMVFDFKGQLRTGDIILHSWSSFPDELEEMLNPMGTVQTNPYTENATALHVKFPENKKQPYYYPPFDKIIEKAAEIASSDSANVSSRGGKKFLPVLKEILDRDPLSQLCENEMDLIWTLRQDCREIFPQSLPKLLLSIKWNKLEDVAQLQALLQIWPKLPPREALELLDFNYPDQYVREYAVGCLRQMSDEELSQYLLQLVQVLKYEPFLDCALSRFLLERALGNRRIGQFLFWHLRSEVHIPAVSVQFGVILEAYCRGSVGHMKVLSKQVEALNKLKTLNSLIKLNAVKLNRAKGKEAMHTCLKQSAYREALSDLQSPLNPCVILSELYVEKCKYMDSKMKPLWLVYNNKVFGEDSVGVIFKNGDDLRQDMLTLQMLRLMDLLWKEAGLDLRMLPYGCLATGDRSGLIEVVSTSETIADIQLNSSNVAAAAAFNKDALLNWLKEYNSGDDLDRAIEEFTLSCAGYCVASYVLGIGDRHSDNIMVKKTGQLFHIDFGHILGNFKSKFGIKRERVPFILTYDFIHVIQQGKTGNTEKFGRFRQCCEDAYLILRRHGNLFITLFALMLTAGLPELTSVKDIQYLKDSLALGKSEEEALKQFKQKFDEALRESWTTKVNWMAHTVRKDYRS
Sequence of Cytochrome P450 2C9 (P11712 whole entry): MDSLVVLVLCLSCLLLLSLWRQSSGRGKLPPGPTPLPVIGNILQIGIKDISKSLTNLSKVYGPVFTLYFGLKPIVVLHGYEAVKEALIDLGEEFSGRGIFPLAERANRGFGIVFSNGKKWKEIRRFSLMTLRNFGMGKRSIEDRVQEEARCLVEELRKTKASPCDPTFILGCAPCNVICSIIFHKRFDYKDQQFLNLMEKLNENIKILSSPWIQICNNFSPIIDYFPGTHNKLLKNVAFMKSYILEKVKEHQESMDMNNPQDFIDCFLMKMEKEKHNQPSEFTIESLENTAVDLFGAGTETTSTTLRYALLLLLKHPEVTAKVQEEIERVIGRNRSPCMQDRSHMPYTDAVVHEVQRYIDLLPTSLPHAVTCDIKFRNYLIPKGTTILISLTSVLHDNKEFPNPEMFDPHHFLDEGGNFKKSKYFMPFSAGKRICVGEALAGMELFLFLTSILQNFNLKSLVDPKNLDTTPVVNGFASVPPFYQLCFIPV
Sequence of Cytochrome P450 2D6 (P10635 whole entry): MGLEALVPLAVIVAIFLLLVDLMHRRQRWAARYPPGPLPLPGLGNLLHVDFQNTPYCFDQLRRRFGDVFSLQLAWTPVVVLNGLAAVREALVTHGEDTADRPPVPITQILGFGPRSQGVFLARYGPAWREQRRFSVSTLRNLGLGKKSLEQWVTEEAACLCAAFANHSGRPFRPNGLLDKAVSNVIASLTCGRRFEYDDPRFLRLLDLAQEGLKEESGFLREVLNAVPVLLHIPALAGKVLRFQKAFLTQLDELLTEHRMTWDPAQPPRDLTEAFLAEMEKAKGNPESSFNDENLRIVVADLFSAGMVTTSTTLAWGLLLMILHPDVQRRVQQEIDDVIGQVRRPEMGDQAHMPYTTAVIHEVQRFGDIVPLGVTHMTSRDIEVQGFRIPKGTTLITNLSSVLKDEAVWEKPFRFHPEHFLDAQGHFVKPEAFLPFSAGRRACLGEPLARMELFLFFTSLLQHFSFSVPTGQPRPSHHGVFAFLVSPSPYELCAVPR
Sequence of Cytochrome P450 1A2 (P05177 whole entry): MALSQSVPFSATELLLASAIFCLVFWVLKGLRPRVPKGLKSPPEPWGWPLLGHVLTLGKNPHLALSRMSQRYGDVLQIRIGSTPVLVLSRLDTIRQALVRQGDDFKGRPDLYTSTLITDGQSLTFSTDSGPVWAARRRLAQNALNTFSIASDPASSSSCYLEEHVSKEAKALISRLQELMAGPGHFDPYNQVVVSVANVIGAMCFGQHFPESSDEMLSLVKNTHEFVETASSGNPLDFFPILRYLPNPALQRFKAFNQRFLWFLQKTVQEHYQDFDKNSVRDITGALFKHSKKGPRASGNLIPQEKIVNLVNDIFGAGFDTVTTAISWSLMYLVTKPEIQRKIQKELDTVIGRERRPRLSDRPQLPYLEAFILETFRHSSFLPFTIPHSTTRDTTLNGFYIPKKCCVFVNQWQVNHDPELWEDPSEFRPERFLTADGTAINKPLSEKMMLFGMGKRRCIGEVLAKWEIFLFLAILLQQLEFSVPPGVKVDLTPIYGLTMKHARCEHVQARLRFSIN

Row | IC50 [11] [µM] | IC50 [12] [µM] | IC50 [13] [µM] | IC50 [14] [µM] | IC50 [15] [µM] | IC50 (MDA-MB-231) [µM] | IC50 (HeLa) [µM] | IC50 (HCT-116 [16]) [µM] | IC50 (HepG2) [µM] | IC50 (A-431) [µM] | IC50 (NCI-H1975) [µM] | Compound | IC50 (CNE-2) [µM] | IC50 (BaF3) [µM] | also measured
1 | – | – | – | – | – | – | – | – | – | – | – | CN(C)C1CCN(C(=O)c2ccc(NC(=O)Nc3ccc(-c4nc(N5CCOCC5)nc(N5CCOCC5)n4)cc3)cc2)CC1 [GEDATOLISIB] | – | – | inhibition (HCT-116 [1]): Active; Stability [2]: Stable; AUC(0-t) at 72 h [3]: 41800 ng·h/mL; AUC(0-inf) [4]: 42200 ng·h/mL; MRT [5]: 9.1 h; half-life [6]: 15 h; Tmax [7]: 1.8 min; Vdss [8]: 10.3 L/kg; IC50 (Cytochrome P450 1A2): > 50 µM; IC50 (Cytochrome P450 2C9): > 50 µM; IC50 (Cytochrome P450 2C19): > 50 µM; IC50 (Cytochrome P450 2D6): > 50 µM; Activity (HCT-116 [9]): 800.3 mm3; inhibition in vivo at 20 mg/kg (HCT-116 [10]): 41.2%; Activity (Spleen): Non-Toxic; Activity (Heart): Non-Toxic; Activity (Lung): Non-Toxic; Activity (Kidney): Non-Toxic; Activity (Liver): Non-Toxic; Activity (Mus musculus): Toxic
2 | 0.0055 | 0.0022 | 0.0119 | 0.0988 | 0.0161 | 39.1 | 13.5 | 4.81 | 3.19 | 6.38 | 5.45 | NC(=O)[C@@H]1CC(O)CN1C(=O)c1ccc(NC(=O)Nc2ccc(-c3nc(N4CCOCC4)nc(N4CCOCC4)n3)cc2)cc1 (stereo partly specified) | 5.42 | 2.69 | –
3 | 0.0009 | 0.0021 | 0.0051 | 0.028 | 0.025 | 0.94 | 1.9 | 3.66 | 0.46 | 1.16 | 3.36 | C[C@@H](NC(=O)c1ccc(NC(=O)Nc2ccc(-c3nc(N4CCOCC4)nc(N4CCOCC4)n3)cc2)cc1)C(N)=O | 12.6 | 0.547 | –
